The target of one assay is T1, TLR8 (Homo sapiens, UniProt Q9NR97).
T1 construct: expressed in transfected cells; host or cells: HEK/293 reporter cells (NF-kB luciferase)
T1 sequence (Q9NR97 27-1041): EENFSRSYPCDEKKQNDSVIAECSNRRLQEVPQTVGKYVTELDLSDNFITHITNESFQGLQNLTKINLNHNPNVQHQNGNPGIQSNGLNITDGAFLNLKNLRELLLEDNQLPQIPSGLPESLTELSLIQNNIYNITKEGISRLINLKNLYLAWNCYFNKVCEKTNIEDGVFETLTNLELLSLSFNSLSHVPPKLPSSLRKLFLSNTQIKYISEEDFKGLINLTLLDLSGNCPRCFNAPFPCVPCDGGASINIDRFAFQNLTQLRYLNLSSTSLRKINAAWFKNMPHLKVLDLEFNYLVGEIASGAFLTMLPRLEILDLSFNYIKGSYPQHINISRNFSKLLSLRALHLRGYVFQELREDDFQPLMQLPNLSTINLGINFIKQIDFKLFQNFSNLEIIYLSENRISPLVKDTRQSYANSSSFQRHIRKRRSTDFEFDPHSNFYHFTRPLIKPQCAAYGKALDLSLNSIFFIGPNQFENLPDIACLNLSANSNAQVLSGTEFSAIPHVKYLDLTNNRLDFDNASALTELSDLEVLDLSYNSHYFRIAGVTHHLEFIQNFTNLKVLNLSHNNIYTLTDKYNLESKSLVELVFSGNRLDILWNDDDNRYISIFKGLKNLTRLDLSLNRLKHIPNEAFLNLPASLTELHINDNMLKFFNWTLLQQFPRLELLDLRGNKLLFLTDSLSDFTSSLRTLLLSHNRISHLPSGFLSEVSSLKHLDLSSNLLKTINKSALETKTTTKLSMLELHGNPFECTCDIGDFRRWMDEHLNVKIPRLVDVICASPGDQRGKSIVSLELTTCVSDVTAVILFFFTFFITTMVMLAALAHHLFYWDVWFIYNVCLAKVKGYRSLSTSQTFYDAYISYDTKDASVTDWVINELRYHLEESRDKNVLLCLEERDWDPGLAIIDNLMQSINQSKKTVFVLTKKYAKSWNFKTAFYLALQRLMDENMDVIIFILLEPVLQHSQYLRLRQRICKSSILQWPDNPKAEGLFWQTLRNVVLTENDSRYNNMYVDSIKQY
The assay is described as follows: HEK/293 TLR8 Cell Assay. It is filed as cell-based. As to conditions: HEK cells, R848 agonist 30 uM final concentration, Steady-Glo readout; read-out: TLR8 potency.

For the next assay, the target named is T2, TLR7 (Homo sapiens, UniProt Q9NYK1).
T2 construct: expressed in transfected cells; host or cells: HEK/293 cells carrying TLR7 and an NF-kB luciferase reporter
T2 sequence (Q9NYK1 27-1049): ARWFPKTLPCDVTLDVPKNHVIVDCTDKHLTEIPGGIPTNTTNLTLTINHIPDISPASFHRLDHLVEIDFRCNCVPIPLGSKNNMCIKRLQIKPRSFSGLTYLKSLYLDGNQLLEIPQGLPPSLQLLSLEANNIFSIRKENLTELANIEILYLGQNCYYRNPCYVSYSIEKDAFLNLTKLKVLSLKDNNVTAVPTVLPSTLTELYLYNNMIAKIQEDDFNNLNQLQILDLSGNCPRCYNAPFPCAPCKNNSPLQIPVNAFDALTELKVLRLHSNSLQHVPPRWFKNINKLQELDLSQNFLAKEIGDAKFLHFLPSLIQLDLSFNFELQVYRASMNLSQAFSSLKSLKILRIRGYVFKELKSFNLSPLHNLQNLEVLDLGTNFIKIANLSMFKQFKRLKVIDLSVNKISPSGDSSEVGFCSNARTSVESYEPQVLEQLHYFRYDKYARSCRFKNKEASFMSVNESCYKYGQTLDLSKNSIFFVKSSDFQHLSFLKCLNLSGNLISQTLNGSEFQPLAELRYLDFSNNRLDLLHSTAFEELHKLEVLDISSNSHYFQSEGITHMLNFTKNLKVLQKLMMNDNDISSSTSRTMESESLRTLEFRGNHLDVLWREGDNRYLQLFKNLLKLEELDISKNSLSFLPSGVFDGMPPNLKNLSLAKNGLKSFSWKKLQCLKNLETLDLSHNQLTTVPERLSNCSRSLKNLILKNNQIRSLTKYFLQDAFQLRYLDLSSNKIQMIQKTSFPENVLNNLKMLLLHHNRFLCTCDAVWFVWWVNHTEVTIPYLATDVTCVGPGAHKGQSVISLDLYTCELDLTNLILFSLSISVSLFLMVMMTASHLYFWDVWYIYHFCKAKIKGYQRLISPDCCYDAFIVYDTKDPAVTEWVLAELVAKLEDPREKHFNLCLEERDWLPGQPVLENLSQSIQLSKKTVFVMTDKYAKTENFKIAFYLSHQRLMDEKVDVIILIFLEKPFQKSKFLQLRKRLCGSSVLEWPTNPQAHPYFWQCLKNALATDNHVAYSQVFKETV
The assay is described as follows: HEK/293 TLR7 Cell Assay. It is filed as cell-based. As to conditions: TLR7/NFKb HEK cells, R848 agonist 10 uM final concentration, Steady-Glo readout; read-out: TLR7 potency. An outline of the steps:
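TLR7/NF-κB reporter HEK293 cells, 5000/well, cultured 24 h, then preincubated 30 min with compound before R848 agonist (10 uM final). After 5 h stimulation, Steady-Glo luciferase luminescence read.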

pIC50: −log10 of the molar value.

With `Cc1c(F)cc(N2C[C@@H](C)C[C@@H](NC(=O)[C@@H](N)CC(N)=O)C2)c2cccnc12` [Example 129, (2S)-2-amino-N-[(3R,5S)-1-(7-fluoro-8-methylquinolin-5-yl)-5-methylpiperidin-3-yl]butanediamide], the pIC50 at TLR8 was over 7.12; at TLR7 it was 6.82 to 7.12.

With `Cc1ccc(N2C[C@H](NC(=O)CC3(O)CCN(C)CC3)C[C@H](C(F)(F)F)C2)c2cccnc12` [Example 87, 2-(4-hydroxy-1-methylpiperidin-4-yl)-N-[(3R,5S)-1-(8-methylquinolin-5-yl)-5-(trifluoromethyl)piperidin-3-yl]acetamide], the pIC50 at TLR8 and on TLR7 was over 7.12 in each case.

On to `CC(C(=O)N[C@@H]1C[C@H](C(F)(F)F)CN(c2ccc(C#N)c3nccnc23)C1)N1CCN(C)CC1` (single isomer, unassigned) [Example 98], for which the pIC50 on TLR8 and on TLR7 was over 7.12 in each case.

In the case of `C[C@@H]1CN(c2ccc(C#N)c3nccnc23)C[C@H](C(=O)N[C@@H]2CCN(CC3CC3)C2)O1` [Example 323, (2R,6R)-4-(8-Cyano-quinoxalin-5-yl)-6-methyl-morpholine-2-carboxylic acid ((R)-cyclopropylmethyl-pyrrolidin-3-yl)-amide], the pIC50 on TLR8 and at TLR7 was over 7.12 throughout.

`C[C@H]1C[C@@H](NC(=O)[C@H]2CCCN2)CN(c2ccc(C#N)c3nccnc23)C1` [Example 174, (R)-Pyrrolidine-2-carboxylic acid [(3R,5S)-1-(8-cyano-quinoxalin-5-yl)-5-methyl-piperidin-3-yl]-amide]: the pIC50 at TLR8 is 6.82 to 7.12; at TLR7, under 6.82.

For the compound `C[C@@H]1CN(c2ccc(C#N)c3nccnc23)C[C@H](C(=O)NCC(O)C(F)(F)F)O1` (stereo partly drawn) [Example 237, (2R,6R)-4-(8-Cyano-quinoxalin-5-yl)-6-methyl-morpholine-2-carboxylic acid (3,3,3-trifluoro-2-hydroxy-propyl)-amide], the pIC50 on TLR8 and at TLR7 was over 7.12 in each case.

Turning to `CN1CCC(C(=O)N[C@@H]2C[C@H](C(F)(F)F)CN(c3ccc(C#N)c4ncccc34)C2)CC1` [Example 61, 1-Methyl-piperidine-4-carboxylic acid [(3R,5S)-1-(8-cyano-quinolin-5-yl)-5-trifluoromethyl-piperidin-3-yl]-amide], the pIC50 at TLR8 and on TLR7 was over 7.12 in each case.

Take `N#Cc1ccc(N2C[C@H](n3cccn3)C[C@H](C(F)(F)F)C2)c2nccnc12` (racemic) [Example 156, 8-[cis-3-(1H-pyrazol-1-yl)-5-(trifluoromethyl)piperidin-1-yl]quinoxaline-5-carbonitrile]: the pIC50 at TLR8 and on TLR7 was under 6.82 in each case.

With `C[C@@H]1CN(c2ccc(C#N)c3nccnc23)C[C@H](CN2CC(O)C2)O1` [Example 216, 8-[(2S,6R)-2-(3-Hydroxy-azetidin-1-ylmethyl)-6-methyl-morpholin-4-yl]-quinoxaline-5-carbonitrile], the pIC50 at TLR8 is under 6.82; at TLR7, over 7.12.

For the compound `C[C@@H]1CN(c2cnc(C#N)c3ncccc23)C[C@H](CNC(=O)[C@]2(F)CCNC2)O1` (single isomer, unassigned) [Example 337], the pIC50 on TLR8 and on TLR7 was over 7.12 in each case.

As for `N#Cc1ccc(N2C[C@H](NC(=O)CC3(F)CCNCC3)C[C@H](C(F)(F)F)C2)c2nccnc12` [Example 118, N-[(3R,5S)-1-(8-cyanoquinoxalin-5-yl)-5-(trifluoromethyl)piperidin-3-yl]-2-(4-fluoropiperidin-4-yl)acetamide], the pIC50 on TLR8 and at TLR7 was over 7.12 in each case.

Regarding `C[C@H]1C[C@@H](NC(=O)[C@@H](C)N2CCC(O)CC2)CN(c2ccc(C#N)c3nccnc23)C1` (single isomer, unassigned) [Example 103], the pIC50 was over 7.12 at TLR8 and under 6.82 at TLR7.

Take `C[C@@H]1CN(c2cnc(C#N)c3ncccc23)C[C@H](CN2CCC(N3CCOCC3)CC2)O1` [Example 367, 5-[(2R,6S)-2-Methyl-6-(4-morpholin-4-yl-piperidin-1-ylmethyl)-morpholin-4-yl]-[1,7]naphthyridine-8-carbonitrile]: the values for the pIC50 on TLR8 and at TLR7 were over 7.12 and 6.82 to 7.12, respectively.

Turning to `C[C@@H]1CN(c2cnc(C#N)c3ncccc23)C[C@H](C(=O)NCC2(F)CNC2)O1` [Example 301, (2R,6R)-4-(8-Cyano-[1,7]naphthyridin-5-yl)-6-methyl-morpholine-2-carboxylic acid (3-fluoro-azetidin-3-ylmethyl)-amide], the pIC50 on TLR8 and on TLR7 was over 7.12 each time.

As for `CONC(=O)CCCN[C@@H]1C[C@H](C)CN(c2ccc(C(F)(F)F)c3nccnc23)C1` [Example 52, N-Methoxy-4-[(3R,5S)-5-methyl-1-(8-trifluoromethyl-quinoxalin-5-yl)-piperidin-3-ylamino]-butyramide], the pIC50 on TLR8 and on TLR7 was over 7.12 throughout.
